Assay results as given in patent US11976069B2, “Inhibitors of histone deacetylase useful for the treatment or prevention of HIV infection” (Merck Sharp & Dohme LLC, priority 2019, dated 2024).
Read-outs that look alike come from different tables or passages of the source.

Molecular target: T1, HDAC6 (Homo sapiens, UniProt Q9UBN7)
T1 sequence (Q9UBN7 1-1215): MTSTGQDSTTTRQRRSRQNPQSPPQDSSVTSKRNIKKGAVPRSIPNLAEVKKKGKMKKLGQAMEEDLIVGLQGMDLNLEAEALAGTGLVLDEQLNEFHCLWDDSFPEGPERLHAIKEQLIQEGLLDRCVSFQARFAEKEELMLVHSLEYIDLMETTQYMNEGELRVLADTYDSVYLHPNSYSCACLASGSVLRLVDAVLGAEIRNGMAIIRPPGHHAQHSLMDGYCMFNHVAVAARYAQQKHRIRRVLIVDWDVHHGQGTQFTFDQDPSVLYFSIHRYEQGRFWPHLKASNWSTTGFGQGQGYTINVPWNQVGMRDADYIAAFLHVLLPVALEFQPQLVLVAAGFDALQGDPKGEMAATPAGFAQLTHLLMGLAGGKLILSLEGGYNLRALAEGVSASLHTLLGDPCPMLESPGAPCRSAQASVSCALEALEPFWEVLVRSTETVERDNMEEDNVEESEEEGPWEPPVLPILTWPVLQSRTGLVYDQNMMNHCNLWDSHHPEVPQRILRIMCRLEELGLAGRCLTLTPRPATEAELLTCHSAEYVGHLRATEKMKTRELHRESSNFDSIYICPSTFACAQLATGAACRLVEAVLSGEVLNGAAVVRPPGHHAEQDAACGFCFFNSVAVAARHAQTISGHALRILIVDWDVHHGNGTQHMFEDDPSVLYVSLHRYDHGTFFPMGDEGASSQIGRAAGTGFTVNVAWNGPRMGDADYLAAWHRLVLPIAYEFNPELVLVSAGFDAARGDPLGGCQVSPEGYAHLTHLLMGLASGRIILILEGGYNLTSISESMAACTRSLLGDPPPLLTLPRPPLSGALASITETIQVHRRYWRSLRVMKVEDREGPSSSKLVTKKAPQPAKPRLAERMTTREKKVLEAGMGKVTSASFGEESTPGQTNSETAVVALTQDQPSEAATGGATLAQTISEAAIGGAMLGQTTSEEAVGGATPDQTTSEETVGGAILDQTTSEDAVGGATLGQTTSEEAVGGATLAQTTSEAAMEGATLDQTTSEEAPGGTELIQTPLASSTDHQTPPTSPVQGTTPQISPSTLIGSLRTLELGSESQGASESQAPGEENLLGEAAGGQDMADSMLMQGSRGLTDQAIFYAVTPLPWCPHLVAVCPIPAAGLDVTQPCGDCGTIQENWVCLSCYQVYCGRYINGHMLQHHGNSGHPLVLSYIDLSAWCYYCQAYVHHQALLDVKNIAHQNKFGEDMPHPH
Test: HDAC6 inhibition, modified Fluor-de-Lys assay
Format: biochemical
Conditions: 3 h pre-incubation, read-out: HDAC-6 IC50
Procedure: Human HDAC Enzyme Inhibitor FLUOR-DE-LYS Assay Materials
The histone deacetylase activities of HDAC1, HDAC2, HDAC3, HDAC6, and HDAC8 were measured in modified Fluor-de-Lys assays in 384-well format. In this assay, HDAC enzymes are initially incubated with an ε-acetyl (or -trifluoroacetyl)-L-lysine-containing substrate with a C-terminal amide having aminomethylcoumarin as the amine component. HDACs cleave the ε-acetyl group, rendering the resulting product susceptible to AMC cleavage by trypsin. The released AMC is then detected by its fluorescence.
The HDAC 1, 2 assays employed buffer A, which contained 20 mM HEPES, pH 8.0, 1 mM MgCl2, 137 mM NaCl, 2.7 mM KCl, 0.05% BSA. The HDAC3/SMRT assay employed buffer B, consisting of 20 mM HEPES, pH 8.0, 1 mM MgCl2, 50 mM NaCl, 2.7 mM KCl, 0.05% BSA, 0.005% Tween 20, and 10 μM IP4. The HDAC6 assay employed buffer C, consisting of 20 mM HEPES, pH 8.0, 1 mM MgCl2, 137 mM NaCl, 2.7 mM KCl, 0.5 mM TCEP (Calbiochem) and 0.05% BSA. The HDAC8 assay employed buffer D, consisting of 20 mM HEPES, pH 8.0, 1 mM MgCl2, 100 mM NaCl, 20 mM KCl, 0.1% n-octyl-β-D-glucoside (Anatrace, Maumee, Ohio) and 0.05% BSA. All steps were performed at room temperature (23° C.). The assay was performed by pre-incubating serial dilutions of test compounds with the target HDAC prior to initiation with substrate. Each compound was titrated in a 10-point dose response, using a 1:3 fold dilution scheme, with 0.15 ul of solution added by ECHO555 to the plate, followed by the addition of 20 μl of the appropriate HDAC isoform diluted in appropriate assay buffer. […] Final conditions used for each assay were: 1. HDAC 1, 0.3 nM total enzyme, 20 μM substrate BML-KI104; 2. HDAC 2, 1.5 nM total enzyme, 40 μM substrate BML-KI104; 3. HDAC 3/SMRT, 0.3 nM total enzyme, 20 μM substrate BML-KI104; 4. HDAC 6, 1.3 nM total enzyme, 2.5 μM substrate BML-KI104; 5. HDAC 8, 1.3 nM total enzyme, 200 μM substrate BML-KI178; the final high dose of test compound was 30 μM. For potent compounds, 900 nM was used as the final high dose. The reactions were stopped and developed by addition of 30 ul of HDAC developer solution containing a saturating level of HDAC inhibitor as follows: 1.

[1] = 1.3 nM enzyme, 2.5 μM substrate BML-KI104
[2] = […] enzyme, […] substrate BML-KI104

Compound	IC50 [1] [µM]	IC50 [2] [µM]
CCC(=O)CCCCC[C@H](NC(=O)[C@H]1CC12CCN(CC)CC2)c1[nH]c2nc1C(=O)NCCC/C=C\c1cccc-2c1 [Compound 14, (1S)-6-ethyl-N-{(1S)-7-oxo-1-[(11Z)-6-oxo-3,7,18-triazatricyclo[11.3.1.1~2,5~]octadeca-1(17),2(18),4,11,13,15-hexaen-4-yl]nonyl}-6-azaspiro[2.5]octane-1-carboxamide]	> 0.09	–
CCC(=O)CCCCC[C@H](NC(=O)[C@H]1CC12CCN(CC)CC2)c1[nH]c2nc1C(=O)NCCC/C=C/c1cccc-2c1 [Compound 15, (1S)-6-ethyl-N-{(1S)-7-oxo-1-[(11E)-6-oxo-3,7,18-triazatricyclo[11.3.1.1~2,5~]octadeca-1(17),2(18),4,11,13,15-hexaen-4-yl]nonyl}-6-azaspiro[2.5]octane-1-carboxamide]	> 0.9	–
(11S,4S)-4-(6-oxooctyl)-61,62-dihydro-3-aza-5(2,5)-oxazola-6(6,1)-quinolina-12(4,1)-piperidina-1(1,2)-cyclopropanadodecaphane-62,2-dione [Compound 8]	–	> 0.9
CCC(=O)CCCCC[C@@H]1NC(=O)[C@H]2CC23CCN(CCCCCCCCn2ccc4cc(c(OC)cc4c2=O)-c2cnc1[nH]2)CC3 [Compound 5, (1^1S,4S)-6^7-methoxy-4-(6-oxooctyl)-6^1,6^2-dihydro-5^1H-3-aza-6(6,2)-isoquinolina-15(4,1)-piperidina-5(2,5)-imidazola-1(1,2)-cyclopropanapentadecaphane-6^1,2-dione]	–	0.218
CCC(=O)CCCCCC1NC(=O)C2CC2N2CCC(CCCCCn3c(=O)ccc4cc(ccc43)-c3cnc1o3)CC2 [Compound 7, (11S,4S)-4-(6-oxooctyl)-61,62-dihydro-3-aza-5(2,5)-oxazola-6(6,1)-quinolina-12(4,1)-piperidina-1(1,2)-cyclopropanadodecaphane-62,2-dione]	–	0.858
